# Test results taken from US11548875B2, “Inhibitor compounds for male contraception” (University of Washington, priority 2018, dated 2023).
# “Also recorded” adds a separate entry of the source.
# Tests used:
# [1] = system: New Zealand white rabbits; test: Oral WIN 18,446 in rabbits: ejaculated sperm, testicular retinoic acid, serum testosterone; format: in vivo, rabbit
# Source text: In 2011, it was discovered that WIN 18,446 suppresses spermatogenesis by inhibiting testicular retinoic acid biosynthesis.
# All animals were azoospermic between week 16 of treatment and week 8 of recovery. Animals underwent a hemi-orchiectomy at the end of treatment, which accounts for the 50% reduction in sperm output at the end of recovery. *p<0.05 compared with baseline.
# FIG. 1C compares testicular tissue retinoic acid concentration (pmol/g of tissue) in New Zealand white rabbits treated with 200 mg/kg WIN 18,446 daily, orally over time (N=4/group). […] All values are means±SEM. *p<0.05 compared with placebo, **p<0.01.
# [2] = system: men; settings: cited from earlier work
smiles,measurement,setting,value
"O=C(NCCCCCCCCNC(=O)C(Cl)Cl)C(Cl)Cl [WIN 18,446]",testicular tissue retinoic acid concentration,"[1]; 200 mg/kg daily, orally over time",reduction in intra-testicular retinoic acid
same,ejaculated sperm concentrations,"[1]; 200 mg/kg orally for 16 weeks, 200 mg/kg",reversible azoospermia; also recorded: azoospermic
same,sperm concentration,"[2]; at least sixty men, up to one year",below 1 million sperm/ml of ejaculate
same,adverse reaction with alcohol,"[2]; men, when they drank alcohol",disulfiram reaction
